Measurements reported in PubChem BioAssay AID256 (DTP/NCI, 2004).
Toxic doses and inconclusive results are not listed. How the source made its calls: active means survival T/C of 150% or more; inactive means T/C below 125% in these data.

Test system: CD2F1 mice, L1210 leukemia ip, survival T/C
Test: NCI In Vivo Anticancer Drug Screen. Data for tumor model L1210 Leukemia (intraperitoneal) in CD2F1 (CDF1) mice
Settings: higher = longer survival
Description: The antitumor activity of compounds was measured in mice bearing transplantable tumors. Survival or tumor size were measured and the results are expressed as the measurement made in the treated group (T) divided by the measurement made in the vehicle treated control group (C). The tumor model used in this assay is L1210 Leukemia (intraperitoneal) in CD2F1 (CDF1) mice

[1] = endpoint: mean survival time, dose: 100.0 mg/kg/injection, schedule: Q01DX009 (ip), vehicle: saline with Tween-80
[2] = endpoint: mean survival time, dose: 200.0 mg/kg/injection, schedule: Q01DX009 (ip), vehicle: saline with Tween-80
[3] = endpoint: mean survival time, dose: 400.0 mg/kg/injection, schedule: Q01DX009 (ip), vehicle: saline with Tween-80
[4] = endpoint: mean survival time, dose: 100.0 mg/kg/injection, schedule: Q04DX003 (ip), vehicle: saline with Tween-80
[5] = endpoint: mean survival time, dose: 200.0 mg/kg/injection, schedule: Q04DX003 (ip), vehicle: saline with Tween-80
[6] = endpoint: mean survival time, dose: 400.0 mg/kg/injection, schedule: Q04DX003 (ip), vehicle: saline with Tween-80
[7] = endpoint: mean survival time, dose: 100.0 mg/kg/injection, schedule: Q01DX009 (ip), vehicle: saline
[8] = endpoint: mean survival time, dose: 200.0 mg/kg/injection, schedule: Q01DX009 (ip), vehicle: saline
[9] = endpoint: mean survival time, dose: 400.0 mg/kg/injection, schedule: Q01DX009 (ip), vehicle: saline

Measured: T/C

CC1C(=O)C(=O)C(CCc2ccccc2)C1=O (stereo unspecified)
inactive: [1] 97 % of control | [2] 102 % of control | [3] 109 % of control

Cc1ccc(C)n1-c1ccccc1
inactive: endpoint: mean survival time, dose: 100.0 mg/kg/injection, schedule: Q01DX009 (ip), vehicle: saline + alcohol 107 % of control | [4] 103 % of control | endpoint: mean survival time, dose: 200.0 mg/kg/injection, schedule: Q01DX009 (ip), vehicle: saline + alcohol 105 % of control | [5] 106 % of control | endpoint: mean survival time, dose: 400.0 mg/kg/injection, schedule: Q01DX009 (ip), vehicle: saline + alcohol 100 % of control | [6] 95 % of control

O=C(c1ccccc1)C1CC1c1ccccc1 (stereo unspecified)
inactive: [7] 101 % of control | [8] 90 % of control | [9] 94 % of control

CCOC(=O)C(OC(C)=O)c1ccccc1 (stereo unspecified)
inactive: [1] 98 % of control | [2] 93 % of control | [3] 96 % of control

O=C(c1ccccc1)c1cccc(C(Br)Br)c1
inactive: [1] 95 % of control | [2] 93 % of control | [3] 101 % of control

CCCC(=O)NN=C(C)C
inactive: endpoint: mean survival time, dose: 12.5 mg/kg/injection, schedule: Q04DX003 (ip), vehicle: saline 105 % of control | endpoint: mean survival time, dose: 25.0 mg/kg/injection, schedule: Q04DX003 (ip), vehicle: saline 104 % of control | endpoint: mean survival time, dose: 50.0 mg/kg/injection, schedule: Q04DX003 (ip), vehicle: saline 107 % of control

OC1C(COCc2ccccc2)OC(n2cccc2)C1O (stereo unspecified)
inactive: endpoint: median survival time, dose: 8.75 mg/kg/injection, schedule: Q01DX005 (ip), vehicle: distilled water + Tween-80 98 % of control | endpoint: median survival time, dose: 17.5 mg/kg/injection, schedule: Q01DX005 (ip), vehicle: distilled water + Tween-80 101 % of control | endpoint: median survival time, dose: 35.0 mg/kg/injection, schedule: Q01DX005 (ip), vehicle: distilled water + Tween-80 104 % of control | endpoint: median survival time, dose: 70.0 mg/kg/injection, schedule: Q01DX005 (ip), vehicle: distilled water + Tween-80 112 % of control | endpoint: median survival time, dose: 140.0 mg/kg/injection, schedule: Q01DX005 (ip), vehicle: distilled water + Tween-80 98 % of control

O=C(Nc1ccc2c3c(ccc(C(=O)Nc4ccccc4)c13)CC2)c1ccccc1
inactive: [4] 100 % of control | [5] 100 % of control | [6] 92 % of control

CCCC(C)OC(=O)c1ccc([N+](=O)[O-])cc1 (stereo unspecified)
inactive: endpoint: mean survival time, dose: 100.0 mg/kg/injection, schedule: Q01DX001 (ip), vehicle: saline 100 % of control | endpoint: mean survival time, dose: 200.0 mg/kg/injection, schedule: Q01DX001 (ip), vehicle: saline 110 % of control | endpoint: mean survival time, dose: 400.0 mg/kg/injection, schedule: Q01DX001 (ip), vehicle: saline 93 % of control

CCc1ccc(C(C)(C)C)cc1
inactive: [4] 99 % of control | [5] 105 % of control

CC(=Nc1ccccc1)C1=C(O)C(Cc2ccc(F)cc2)NC1=O (stereo unspecified)
inactive: endpoint: mean survival time, dose: 12.5 mg/kg/injection, schedule: Q04DX002 (ip), vehicle: saline with Tween-80 103 % of control | endpoint: mean survival time, dose: 25.0 mg/kg/injection, schedule: Q04DX002 (ip), vehicle: saline with Tween-80 100 % of control | endpoint: mean survival time, dose: 50.0 mg/kg/injection, schedule: Q04DX002 (ip), vehicle: saline with Tween-80 100 % of control

O=Cc1ccccc1O.O=Cc1ccccc1O.O=Cc1ccccc1O.[La]
inactive: [4] 89 % of control | [5] 98 % of control

NC(=O)SCC(N)C(=O)O (stereo unspecified)
inactive: endpoint: mean survival time, dose: 50.0 mg/kg/injection, schedule: Q01DX009 (ip), vehicle: saline 101 % of control | [7] 101 % of control | [8] 109 % of control | endpoint: mean survival time, dose: 300.0 mg/kg/injection, schedule: Q01DX009 (ip), vehicle: saline 107 % of control

O=C(C(=O)c1ccccc1)c1ccccc1
inactive: [7] 100 % of control | [8] 101 % of control | [9] 108 % of control

C/C(CC(=O)Nc1ccccn1)=N\c1ccccn1
inactive: [4] 96 % of control | [5] 94 % of control

O=P(O)(c1cc(Cl)cc(Cl)c1)c1cc(Cl)cc(Cl)c1
inactive: endpoint: mean survival time, dose: 18.8 mg/kg/injection, schedule: Q04DX003 (ip), vehicle: saline 100 % of control | endpoint: mean survival time, dose: 37.5 mg/kg/injection, schedule: Q04DX003 (ip), vehicle: saline 100 % of control | endpoint: mean survival time, dose: 75.0 mg/kg/injection, schedule: Q04DX003 (ip), vehicle: saline 102 % of control
